Test system: Echinochloa crus-galli
Assay: Post-emergence herbicidal activity, glasshouse pot test
Format: in vivo
Set-up: key: 0 = no damage to plant, 5 = total damage to plant
Conditions: Application post-emergence, rate 1000 g/ha, evaluated after 13 days
Method in brief: (§1)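 After 8 days of glasshouse growth at 24/16 °C day/night, potted plants receive a foliar spray of the formulated compound (0.5% Tween 20 in acetone/water). They are then watered twice daily under unchanged conditions, and phytotoxicity is scored 0–5 after 13 days.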

| SMILES | ECHCG herbicidal damage score |
| --- | --- |
| COC1=C(C)C(O)N(c2cc(C(C)(C)C)c(-c3ccc(F)nc3)nn2)C1=O (stereo not drawn) [BI30] | 5 |
| COC1=C(C)C(O)N(c2cc(C(C)(C)C)c(N3CC(F)(F)C3)nn2)C1=O (stereo not drawn) [BI31] | 5 |
| COC1=C(C)C(O)N(c2cc(C)c(-c3cnn(C)c3)nn2)C1=O (stereo not drawn) [BI33] | 2 |
| COC1=C(OC)C(O)N(c2cc(C)c(OC)nn2)C1=O (stereo not drawn) [BK1] | 5 |

Test system: Alopecurus myosuroides
Assay: as above
Format: in vivo
Set-up: key: 0 = no damage to plant, 5 = total damage to plant
Conditions: Application post-emergence, rate 1000 g/ha, evaluated after 13 days
Method in brief: as §1

| SMILES | ALOMY herbicidal damage score |
| --- | --- |
| COC1=C(C)C(O)N(c2cc(C(C)(C)C)c(-c3ccc(F)nc3)nn2)C1=O (stereo not drawn) [BI30] | 5 |
| COC1=C(C)C(O)N(c2cc(C(C)(C)C)c(N3CC(F)(F)C3)nn2)C1=O (stereo not drawn) [BI31] | 5 |
| COC1=C(C)C(O)N(c2cc(C)c(-c3cnn(C)c3)nn2)C1=O (stereo not drawn) [BI33] | 2 |
| COC1=C(OC)C(O)N(c2cc(C)c(OC)nn2)C1=O (stereo not drawn) [BK1] | 4 |

Test system: zea mays
Assay: as above
Format: in vivo
Set-up: key: 0 = no damage to plant, 5 = total damage to plant
Conditions: Application post-emergence, rate 1000 g/ha, evaluated after 13 days
Method in brief: as §1

| SMILES | ZEAMX herbicidal damage score |
| --- | --- |
| COC1=C(C)C(O)N(c2cc(C(C)(C)C)c(-c3ccc(F)nc3)nn2)C1=O (stereo not drawn) [BI30] | 4 |
| COC1=C(C)C(O)N(c2cc(C(C)(C)C)c(N3CC(F)(F)C3)nn2)C1=O (stereo not drawn) [BI31] | 4 |
| COC1=C(C)C(O)N(c2cc(C)c(-c3cnn(C)c3)nn2)C1=O (stereo not drawn) [BI33] | 1 |
| COC1=C(OC)C(O)N(c2cc(C)c(OC)nn2)C1=O (stereo not drawn) [BK1] | 3 |

Test system: Setaria faberi
Assay: as above
Format: in vivo
Set-up: key: 0 = no damage to plant, 5 = total damage to plant
Conditions: Application post-emergence, rate 1000 g/ha, evaluated after 13 days
Method in brief: as §1

| SMILES | SETFA herbicidal damage score |
| --- | --- |
| COC1=C(C)C(O)N(c2cc(C(C)(C)C)c(-c3ccc(F)nc3)nn2)C1=O (stereo not drawn) [BI30] | 5 |
| COC1=C(C)C(O)N(c2cc(C(C)(C)C)c(N3CC(F)(F)C3)nn2)C1=O (stereo not drawn) [BI31] | 5 |
| COC1=C(C)C(O)N(c2cc(C)c(-c3cnn(C)c3)nn2)C1=O (stereo not drawn) [BI33] | 2 |
| COC1=C(OC)C(O)N(c2cc(C)c(OC)nn2)C1=O (stereo not drawn) [BK1] | 5 |

Test system: Abutilon theophrasti
Assay: as above
Format: in vivo
Set-up: key: 0 = no damage to plant, 5 = total damage to plant
Conditions: Application post-emergence, rate 1000 g/ha, evaluated after 13 days
Method in brief: as §1

| SMILES | ABUTH herbicidal damage score |
| --- | --- |
| COC1=C(C)C(O)N(c2cc(C(C)(C)C)c(-c3ccc(F)nc3)nn2)C1=O (stereo not drawn) [BI30] | 5 |
| COC1=C(C)C(O)N(c2cc(C(C)(C)C)c(N3CC(F)(F)C3)nn2)C1=O (stereo not drawn) [BI31] | 5 |
| COC1=C(C)C(O)N(c2cc(C)c(-c3cnn(C)c3)nn2)C1=O (stereo not drawn) [BI33] | 0 |
| COC1=C(OC)C(O)N(c2cc(C)c(OC)nn2)C1=O (stereo not drawn) [BK1] | 5 |

Test system: Amaranthus retroflexus
Assay: as above
Format: in vivo
Set-up: key: 0 = no damage to plant, 5 = total damage to plant
Conditions: Application post-emergence, rate 1000 g/ha, evaluated after 13 days
Method in brief: as §1

| SMILES | AMARE herbicidal damage score |
| --- | --- |
| COC1=C(C)C(O)N(c2cc(C(C)(C)C)c(-c3ccc(F)nc3)nn2)C1=O (stereo not drawn) [BI30] | 5 |
| COC1=C(C)C(O)N(c2cc(C(C)(C)C)c(N3CC(F)(F)C3)nn2)C1=O (stereo not drawn) [BI31] | 5 |
| COC1=C(C)C(O)N(c2cc(C)c(-c3cnn(C)c3)nn2)C1=O (stereo not drawn) [BI33] | 4 |
| COC1=C(OC)C(O)N(c2cc(C)c(OC)nn2)C1=O (stereo not drawn) [BK1] | 5 |

Test system: Echinochloa crus-galli
Assay: Pre-emergence herbicidal activity, glasshouse pot test
Format: in vivo
Conditions: pre-emergence spray, rate 1000 g/ha, evaluated after 13 days, scale 0-5
Method in brief: (§2)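 Damage score 0–5 (5 = total damage) read 13 d after spraying. Pots sown, sprayed pre-emergence at day 1 with aqueous spray from acetone/water 50:50 + 0.5% Tween 20 formulation; glasshouse 24/16 °C, 14 h light, 65% RH.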

| SMILES | ECHCG damage score, application pre-emergence |
| --- | --- |
| COC1=C(C)C(O)N(c2cc(C(C)(C)C)c(-c3ccc(F)nc3)nn2)C1=O (stereo not drawn) [BI30] | 5 |
| COC1=C(C)C(O)N(c2cc(C(C)(C)C)c(N3CC(F)(F)C3)nn2)C1=O (stereo not drawn) [BI31] | 4 |
| COC1=C(C)C(O)N(c2cc(C)c(-c3cnn(C)c3)nn2)C1=O (stereo not drawn) [BI33] | 0 |
| COC1=C(OC)C(O)N(c2cc(C)c(OC)nn2)C1=O (stereo not drawn) [BK1] | 4 |

Test system: Alopecurus myosuroides
Assay: as above
Format: in vivo
Conditions: pre-emergence spray, rate 1000 g/ha, evaluated after 13 days, scale 0-5
Method in brief: as §2

| SMILES | ALOMY damage score, application pre-emergence |
| --- | --- |
| COC1=C(C)C(O)N(c2cc(C(C)(C)C)c(-c3ccc(F)nc3)nn2)C1=O (stereo not drawn) [BI30] | 4 |
| COC1=C(C)C(O)N(c2cc(C(C)(C)C)c(N3CC(F)(F)C3)nn2)C1=O (stereo not drawn) [BI31] | 4 |
| COC1=C(C)C(O)N(c2cc(C)c(-c3cnn(C)c3)nn2)C1=O (stereo not drawn) [BI33] | 0 |
| COC1=C(OC)C(O)N(c2cc(C)c(OC)nn2)C1=O (stereo not drawn) [BK1] | 4 |

Test system: zea mays
Assay: as above
Format: in vivo
Conditions: pre-emergence spray, rate 1000 g/ha, evaluated after 13 days, scale 0-5
Method in brief: as §2

| SMILES | ZEAMX damage score, application pre-emergence |
| --- | --- |
| COC1=C(C)C(O)N(c2cc(C(C)(C)C)c(-c3ccc(F)nc3)nn2)C1=O (stereo not drawn) [BI30] | 4 |
| COC1=C(C)C(O)N(c2cc(C(C)(C)C)c(N3CC(F)(F)C3)nn2)C1=O (stereo not drawn) [BI31] | 3 |
| COC1=C(C)C(O)N(c2cc(C)c(-c3cnn(C)c3)nn2)C1=O (stereo not drawn) [BI33] | 0 |
| COC1=C(OC)C(O)N(c2cc(C)c(OC)nn2)C1=O (stereo not drawn) [BK1] | 2 |

Test system: Setaria faberi
Assay: as above
Format: in vivo
Conditions: pre-emergence spray, rate 1000 g/ha, evaluated after 13 days, scale 0-5
Method in brief: as §2

| SMILES | SETFA damage score, application pre-emergence |
| --- | --- |
| COC1=C(C)C(O)N(c2cc(C(C)(C)C)c(-c3ccc(F)nc3)nn2)C1=O (stereo not drawn) [BI30] | 5 |
| COC1=C(C)C(O)N(c2cc(C(C)(C)C)c(N3CC(F)(F)C3)nn2)C1=O (stereo not drawn) [BI31] | 5 |
| COC1=C(C)C(O)N(c2cc(C)c(-c3cnn(C)c3)nn2)C1=O (stereo not drawn) [BI33] | 0 |
| COC1=C(OC)C(O)N(c2cc(C)c(OC)nn2)C1=O (stereo not drawn) [BK1] | 4 |

Test system: Abutilon theophrasti
Assay: as above
Format: in vivo
Conditions: pre-emergence spray, rate 1000 g/ha, evaluated after 13 days, scale 0-5
Method in brief: as §2

| SMILES | ABUTH damage score, application pre-emergence |
| --- | --- |
| COC1=C(C)C(O)N(c2cc(C(C)(C)C)c(-c3ccc(F)nc3)nn2)C1=O (stereo not drawn) [BI30] | 5 |
| COC1=C(C)C(O)N(c2cc(C(C)(C)C)c(N3CC(F)(F)C3)nn2)C1=O (stereo not drawn) [BI31] | 5 |
| COC1=C(C)C(O)N(c2cc(C)c(-c3cnn(C)c3)nn2)C1=O (stereo not drawn) [BI33] | 0 |
| COC1=C(OC)C(O)N(c2cc(C)c(OC)nn2)C1=O (stereo not drawn) [BK1] | 4 |

Test system: Amaranthus retroflexus
Assay: as above
Format: in vivo
Conditions: pre-emergence spray, rate 1000 g/ha, evaluated after 13 days, scale 0-5
Method in brief: as §2

| SMILES | AMARE damage score, application pre-emergence |
| --- | --- |
| COC1=C(C)C(O)N(c2cc(C(C)(C)C)c(-c3ccc(F)nc3)nn2)C1=O (stereo not drawn) [BI30] | 5 |
| COC1=C(C)C(O)N(c2cc(C(C)(C)C)c(N3CC(F)(F)C3)nn2)C1=O (stereo not drawn) [BI31] | 5 |
| COC1=C(C)C(O)N(c2cc(C)c(-c3cnn(C)c3)nn2)C1=O (stereo not drawn) [BI33] | 0 |
| COC1=C(OC)C(O)N(c2cc(C)c(OC)nn2)C1=O (stereo not drawn) [BK1] | 5 |

Source: US9963445B2, “Chemical compounds” (SYNGENTA PARTICIPATIONS AG, priority 2013, dated 2018)
